Results taken from patent US20250367218A1, “METHODS OF TREATING METABOLIC DISORDERS AND COMBINATION PRODUCTS FOR USE IN THE SAME” (INSTITUT PASTEUR DE MONTEVIDEO, priority 2024, published 2025).

Key:
[1] = Weight regain of HFD mice after discontinuation of treatment (rebound effect); type: in vivo, C57BL/6J mice
Protocol: Comparison of weight regain in mice following discontinuation of treatment with SANA or a GLP-1 agonist was measured in order to quantify the “rebound effect” as a result of discontinuing treatment. Mice were fed a high-fat diet for a period of 5 weeks, and were then untreated (HFD), treated with GLP-1 agonist (liraglutide, 0.2 mg/kg/day SC daily injection, LIRA), or treated with SANA (200 mg/kg/day PO) for a period of nine weeks. The high-fat diet was continued during the treatment period. Following week 9, all treatment was discontinued and weight regain in the mice was monitored through week 14.
The ability of SANA to prevent the regain of weight in mice following discontinuation of GLP-1 treatment was also assessed. Mice were fed a high-fat diet for a period of 5.5 weeks, and were then untreated (HFD), treated with GLP-1 agonist (semaglutide, 40 mg/kg s.c. every 3 days), or treated with semaglutide+SANA (10 mg/kg/day) for a period of 2.5 weeks. At week 8, except for the control group (HFD) all groups were treated only with SANA (10 mg/kg/day, s.c.).
(§1) A higher dose of SANA was then assessed for its ability to prevent the regain of weight in mice following discontinuation of GLP-1 treatment. […] The weight regain of the mice was monitored for another 1.5-6.5 weeks. *, **, ***, #, and ## show statistically significant differences, p<0.05, p<0.01, p<0.001, p<0.05, and p<0.01, respectively.

[2] = Serum non-esterified fatty acids (NEFA) in HFD mice; type: in vivo, C57BL/6J mice; conditions: 4 weeks; SANA 200 mg/kg/day, semaglutide 2 nmol/kg/day, alone or combined; FIG. 7B
Protocol: As described in Example 2A above, mice were fed with a high fat diet (HFD) for 5.5 weeks prior to the initiation of treatment, and the high-fat diet continued during the 4 week treatment period. Different doses of semaglutide were provided, either alone or in combination with SANA, and compared to SANA alone and untreated mice alone. Specifically, mice were either untreated (HFD) (n=5), or treated with SANA (200 mg/kg/day, n=5), semaglutide (0.25 nmol/kg/day, n=5), semaglutide (2 nmol/kg/day, n=4), a combination of SANA (200 mg/kg/day) and semaglutide (0.25 nmol/kg/day) (n=5), or a combination of SANA (200 mg/kg/day) and semaglutide (2 nmol/kg/day) (n=3).
Next, different doses of SANA were tested, either alone or in combination with semaglutide, and compared to treatment with semaglutide alone and untreated mice. Specifically, as described in Example 2A above, mice were fed with a high fat diet (HFD) for 5.5 weeks prior to the initiation of treatment, and the high-fat diet continued during the 1.5-week treatment period. […]

[3] = Body weight of obese mice fed a high-fat diet (HFD) during treatment; type: in vivo, C57BL/6J mice
Protocol: (§2) All studies conducted in mice utilized C57BL/6J mice maintained at the Institut Pasteur de Montevideo Animal facility (UBAL). Experimental protocols were approved by the Institutional Animal Care and Use Committee of the Institut Pasteur de Montevideo (CEUA, Protocol numbers 003-19 and 006-19). Studies were performed according to the methods approved in the protocols. All the experiments were performed on adult male mice (10-12 weeks of age) and were conducted at either 22° C. with free access to food and water. Unless specified, mice were housed at 22° C. in groups of five.
(§3) High-fat diet (HFD) feeding: Male C57BL/6J mice housed at 22° C. were fed a high-fat diet (42% fat and 0.25% cholesterol, AlN93G, LabDiet, USA), starting at 12 weeks of age and for a duration of 5 weeks prior to beginning administration of any active pharmaceutical ingredients. After the onset of the treatment, HFD ad libitum was maintained until the end of the experiments.
Drug delivery: SANA was administered orally (PO) by mixing with the food (50, 100, or 200 mg/kg/day), or subcutaneously (SC, 10, 15, or 20 mg/kg/day in 100 mM phosphate buffer, pH 6.5). In all cases the vehicle was used as control. Liraglutide (Novo Nordisk, Denmark) was administered daily, subcutaneously (SC, 0.2 mg/kg/day). Semaglutide (Ozempic®, Novo Nordisk, Denmark) was administered subcutaneously (SC, 2 nmol/kg/day or 40 mg/kg every 3 days).
Mice were fed with a high fat diet (HFD) for 5 weeks prior to the initiation of treatment, and the high-fat diet continued during a 2-week treatment period. FIGS. 1A-1B show graphs of average mouse weight without treatment (HFD, n=8), treatment with SANA (HFD+SANA, 200 mg/kg/day, n=9), treatment with liraglutide (HFD+LIRA, 0.2 mg/kg/day, n=8), or treatment with a combination of SANA (200 mg/kg/day) and liraglutide (0.2 mg/kg/day) (HFD+SANA+LIRA, n=10).
FIGS. 3A and 3B show graphs of the average mouse weight without treatment (n=9), treatment with SANA (15 mg/kg/day, n=8), treatment with semaglutide (2 nmol/kg/day, n=10), or treatment with a combination of SANA (15 mg/kg/day) and semaglutide (2 nmol/kg/day) (n=10). Mice were fed with a high fat diet (HFD) for 5.5 weeks prior to the initiation of treatment, and the high-fat diet continued during the 3-week treatment period. Referring to FIGS. 3A and 3B, obese mice administered SANA alone (HFD+SANA) or semaglutide alone (HFD+SEMA) experienced an average weight loss of about 5% after three weeks.
In a separate experiment, different doses of subcutaneous semaglutide alone were compared to treatment with oral administration of SANA alone, and to treatment with a combination of oral SANA and two different doses of subcutaneous semaglutide. […]

[4] = cited from earlier work
[5] = Cumulative food intake of mice fed a high-fat diet (HFD); type: in vivo, C57BL/6J mice; conditions: SANA 200 mg/kg/day PO continued after 1.5 weeks of concomitant SANA plus semaglutide 10 nmol/kg/day; FIG. 6D
Protocol: as §2
as §3, with “experiments. […]” for “experiments.”
as §1, with “respectively. […]” for “respectively.”

[6] = Blood glucose measurements: fasting/basal glucose and glucose tolerance test (GTT) in HFD mice; type: in vivo, C57BL/6J mice; conditions: SANA 200 mg/kg/day PO after discontinuation of concomitant SANA plus semaglutide, versus semaglutide 10 nmol/kg/day alone; FIGS. 6E, 6F
Protocol: Blood glucose measurements: Mice were kept in fasting for 16 h before fasting glucose measurement and glucose tolerance tests (GTT). When performing GTT, mice were injected (IP) with 1.5 g/kg body weight of glucose solution. Plasma glucose concentrations were measured from blood obtained from the tail using a hand-held glucometer (Accu-Chek, Roche).
Glucose tolerance (“GTT”), basal glucose, and glucose Area Under the Curve (“AUC”) were also measured following two weeks of treatment, and the results are presented graphically in FIGS. 2A, 2B, and 2C with * indicating a statistically significant difference, p<0.05.
A higher dose of SANA was then assessed for its ability to prevent the regain of weight in mice following discontinuation of GLP-1 treatment. Referring to FIGS. 6B and 6C, mice were fed a high-fat diet for a period of 5.5 weeks, and then were untreated (HFD), treated with GLP-1 agonist (semaglutide, 10 nmol/kg/day—SC), or treated with semaglutide+SANA for a period of 1.5 weeks, at which time, the semaglutide treatment was ceased and the groups were treated only with SANA (200 mg/kg/day, PO). The weight regain of the mice was monitored for another 1.5-6.5 weeks. *, **, ***, #, and ## show statistically significant differences, p<0.05, p<0.01, p<0.001, p<0.05, and p<0.01, respectively. […]

[7] = obese mice treated with SANA, WO2020058917A1 / US2023346728A1

Compound: O=C(O)c1cc(/C=C/[N+](=O)[O-])ccc1O [SANA, 5-(2-nitroethenyl) salicylic acid]
- regain of weight after discontinuation of semaglutide ([1]; SANA 10 mg/kg/day s.c. after 2.5 weeks of semaglutide (40 mg/kg s.c. every 3 days) alone or SANA plus semaglutide, FIG. 6A): prevented regain of weight
- regain of weight after discontinuation of semaglutide ([1]; SANA 200 mg/kg/day PO after 1.5 weeks of semaglutide (10 nmol/kg/day SC) alone or SANA plus semaglutide, FIGS. 6B, 6C): prevented regain of weight
- drop in serum NEFA levels [2]: little to no change
- average reduction in weight during the treatment period ([3]; HFD mice, nine weeks, liraglutide 0.2 mg/kg/day SC or SANA 200 mg/kg/day PO, FIG. 5): 15%
- average weight loss ([3]; obese HFD mice, after four weeks, oral SANA 200 mg/kg/day, subcutaneous semaglutide 2 nmol/kg/day, alone or concomitant, FIGS. 3E, 3F): about 5%
- average weight loss ([3]; obese HFD mice, after three weeks, SANA 15 mg/kg/day, semaglutide 2 nmol/kg/day, alone or concomitant, FIGS. 3A, 3B): about 5%
- weight loss ([3]; obese HFD mice, after two weeks, SANA 200 mg/kg/day, liraglutide 0.2 mg/kg/day, alone or concomitant, FIGS. 1A, 1B): about 10%
- thermogenesis and beiging of white adipose tissue ([4]; mice under diet-induced obesity (DIO), by activating creatine-dependent thermogenesis): stimulates thermogenesis and beiging of white adipose tissue
- fat accretion [4, 7]: resistance to fat accretion
- glucose intolerance [4, 7]: improved glucose intolerance
- liver steatosis [4, 7]: absence of liver steatosis
- response to cold challenge [4, 7]: improved response to cold challenge
- cumulative food intake after discontinuation of semaglutide [5]: remained lower
- fasting glucose, lower [6]: 55%
